Experimental findings from patent US10639287B2, “Compounds for the treatment of mitochondrial diseases” (UNIVERSITE PARIS-SUD, priority 2014, dated 2020) are described below.

Test [1] deals with complex I in neuronal cybrids derived from a MELAS patient (m.3243A>G tRNA^Leu mutation). The test can be described thus: Ratio of complex I/citrate synthase activities in MELAS neuronal cybrids. Type of test: cell-based, human. The note with it: 1 μM or 300 nM, 48 hours. On the procedure: The mutant MELAS neuronal transmitochondrial line, which is the result of the fusion of the immortalised neuoroblastoma parental line SHSY-5Y with fibroblasts carrying the mutation m.3243A>G, was created in the laboratory of Prof. Procaccio.
Neuronal cybrid lines carrying the MELAS mutation and the parental control line were grown in sterile culture flasks and incubated at 37° C. with 5% CO2 in a medium composed of DMEM with 1.5 g/L glucose, 2 mM L-glutamine and supplemented with 10% foetal bovine serum as well as uridine (5 μg/ml) and pyruvate (10 μg/mL). […]
(§1) The MELAS neuronal cybrid line carrying the mutation seemingly in the homoplasmic state (i.e. reaching almost 100% MELAS mutation) and the SHSY-5Y parental control line were used for measurements of enzyme activities. […] These cell pellets were then analysed by spectrophotometry with measurement of the different mitochondrial biochemical activities, particularly the activity of citrate synthase and the activity of complex I of the respiratory chain. […]
The enzymatic activities were measured according to the protocol described in Medjda et al, 2009 (Medja F, Allouche S, Frachon P, Jardel C, Malgat M, Mousson de Camaret B, Slama A, Lunardi J, Mazat J P, Lombès A. Development and implementation of standardized respiratory chain spectrophotometric assays for clinical diagnosis. Mitochondrion. 2009 September; 9(5):331-9).

Test [2] concerns neuronal cybrids derived from a MELAS patient (m.3243A>G tRNA^Leu mutation). Nature of the test: Lactate production of MELAS neuronal cybrids. The format is cell-based, human. The note with it: 1 μM or 300 nM, 48 hours. How it is done: The increase in the lactate production is the result of a toxicity of the drug used, but also of a mitochondrial dysfunction (energy deficiency) present in MELAS syndrome.
Neuronal cybrid lines carrying the MELAS mutation and the parental control line were grown in sterile culture flasks and incubated at 37° C. with 5% CO2 in a medium composed of DMEM with 1.5 g/L glucose, 2 mM L-glutamine and supplemented with 10% foetal bovine serum as well as uridine (5 μg/ml) and pyruvate (10 μg/mL). The cells were harvested by trypsinisation in exponential phase and were used for subsequent biochemical or molecular mitochondrial analyses.
as §1
The lactate concentration of the culture medium for neuronal cybrid and parental cells was determined by spectrophotometry using an enzymatic kit (Bohringer) on a Hitachi-Roche apparatus (Roche Diagnostics GmbH). […]

As for `CCCCCCCN(CC)CCCC(O)c1ccc(NS(C)(=O)=O)cc1` (centres unmarked) [ibutilide], the “activity of complex I (ratio complex I/citrate synthase)” value in test [1] is “increased”. The production of lactate result in test [2] is “decreased”.
